Here are results for 5 compounds from patent publication EP4650362A1, “NEUROPROTECTIVE PSD-95 POLYPEPTIDE INHIBITOR AND USE THEREOF” (Beijing Tuo Jie Biopharmaceutical Co. Ltd., priority 2023, dated 2024).

In general, IC50 refers to the concentration needed to halve the response being measured. The EC50 is the concentration giving half of the maximal effect.

Non-standard residues stand in square brackets, D forms with d. Residues, ends and D or L forms follow the SMILES beside them. hArg = N=C(N)NCCCC[C@H](N)C(=O)O; Tle = CC(C)(C)[C@H](N)C(=O)O; Dab = NCC[C@H](N)C(=O)O; Aib = CC(C)(N)C(=O)O Some results are limits rather than exact numbers.

The target of assay [1] is T1, human PSD95-PDZ2 (Homo sapiens, UniProt P78352).
T1 construct: PDZ2 (155-249, the Flag-His-Avitag-TEVsite tag is italicized); made in house; host or cells: E. coli BL21-DE3 (PET vector)
The assay is described as follows: competitive ELISA, affinity for human PSD95-PDZ2. It counts as binding. The following applies: for IC50: competitive ELISA against 0.3 µM Biotin-NA-1, error of this test within three times, read-out: IC50; for rIC50: ratio of the affinity of the polypeptide compound to the affinity of NA-1. An excerpt:
The objective of this test example was to determine the affinities of polypeptide compounds for human PSD95-PDZ2 using competitive ELISAs.
The amino acid sequence of PDZ2 protein was designed using human PSD95 (Uniprot Entry: P78352) as a template for PDZ: PDZ2 (155-249, the Flag-His-Avitag-TEVsite tag is italicized and was subsequently used for purification and biotinylation): […]
[…] (SEQ ID NO. 62). The PDZ2 gene was constructed onto a PET expression vector, and induced expression was performed using BL21-DE3 E. coli cells under conditions of 37 °C and 1 mM IPTG 4 h. Then centrifugation was performed at 10,000 g at 4 °C for 10 min, and the cell pellets were collected, resuspended in 1× PBS solution, and then lysed using a homogenizer. The lysate was centrifuged at high speed, and the supernatant was collected and filtered through a 0.45 µm membrane. A Ni-Sepharose affinity column was equilibrated with 5 column volumes of a 20 mM phosphate buffer (pH 8.0). The sample was centrifuged at high speed to remove impurities and loaded onto the column for binding. The column was rinsed with the 20 mM phosphate buffer until the A280 reading dropped to the baseline. Gradient elution was then performed with the 20 mM phosphate buffer and 0-500 mM imidazole. A protein was collected, and whether it was the target protein was determined. The purified sample described above was buffer-exchanged into 1× PBS solution, and the resulting solution was concentrated to a volume of 2 mL and further purified using a Superdex200 gel chromatography column (GE) equilibrated with 1× PBS. The target peak was collected and aliquoted for later use.
PSD95-PDZ2 (the tag was removed by TEV enzyme) was diluted with 1× PBS buffer to 1 µg/mL, added to a 96-well microplate (Corning, 9018, 25/box 96-well clear flat bottom plate) at 100 µL/well, and left to stand overnight at 4 °C for 16-20 h. After the liquid was discarded, the plate was washed three times with PBST (pH 7.4, 0.05% Tween-20) buffer, and a 4% BSA blocking solution diluted with PBST buffer was then added (300 µL/well). The plate was blocked by incubation in an incubator at 37 °C for 1 h. After the blocking was complete, the blocking solution was discarded, and the plate was washed three times with PBST buffer. Biotin-NA-1, at a constant concentration of 0.3 µM, and the test compounds, having a starting concentration of 100 µM and serially diluted ten-fold with PBS buffer to seven concentrations (100, 10, 1, 0.1, 0.01, 0.001, 0.0001, and 0 µM), were then added, and the plate was incubated in an incubator at 37 °C for 1 h. After the incubation was complete, the reaction solutions in the microplate were discarded, and the plate was washed three times with PBST. 100 µL of HRP-SA secondary antibody (diluted at 1:2000) was added to each well, and the plate was incubated at 37 °C for 1 h. After the plate was washed three times with PBST, 100 µL of TMB chromogenic substrate was added. The plate was incubated at room temperature for 1-3 min, and 100 µL of 1 M sulfuric acid was added to stop the reaction.
The absorbance at 450 nm was measured using a SpectraMax M5 microplate reader, and non-linear fitting was performed using GraphPad Prism 9 to calculate the binding IC50 values of the test compounds to PSD95-PDZ2 protein.
On the technique in general: ELISA stands for enzyme-linked immunosorbent assay.

The target of assay [2] is T1, human PSD95-PDZ2. The assay is described as follows: binding ELISA with Biotin-PDZ2. Particulars: for EC50: plate coated with 2 µM test compound, Biotin-PDZ2 titrated, read-out: EC50 (PDZ2); for Specificity for PDZ2 (PDZ3/PDZ2): ratio PDZ3/PDZ2. An excerpt:
(§1) The three PDZ domains in the PSD95 protein are structurally similar. Binding to the PDZ1 and PDZ2 domains can effectively block PSD95-mediated neuroexcitotoxicity. However, the biological function of binding to the PDZ3 domain is unclear. Therefore, to avoid potential safety concerns, this test example assessed the selectivity of polypeptide compounds for the PDZ2 and PDZ3 domains, aiming to identify polypeptide compounds that specifically bind to the PDZ2 domain. Site-specifically biotinylated Biotin-PDZ2 and Biotin-PDZ3 proteins were used for binding ELISA assays. […] After the blocking was complete, the blocking solution was discarded, and the plate was washed three times with PBST buffer. […] After the incubation was complete, the reaction solutions in the microplate were discarded, and the plate was washed three times with PBST. 100 µL of HRP-SA secondary antibody (diluted at 1:2000) was added to each well, and the plate was incubated at 37 °C for 1 h. After the plate was washed three times with PBST, 100 µL of TMB chromogenic substrate was added. […] The absorbance at 450 nm was measured using a SpectraMax M5 microplate reader, and the binding EC50 values of the test compounds to Biotin-PDZ2 or Biotin-PDZ3 were calculated using GraphPad Prism 9. […] The abilities of polypeptide compounds to bind to human PSD95-PDZ2 and human PSD95-PDZ3
Target sequence in this assay (P78352 155-249): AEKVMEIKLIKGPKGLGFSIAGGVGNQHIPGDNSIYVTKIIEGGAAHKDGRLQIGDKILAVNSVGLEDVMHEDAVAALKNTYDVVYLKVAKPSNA

The target in another assay is T2, human PSD95-PDZ3 (Homo sapiens, UniProt P78352).
T2 construct: PDZ3 (309-401, Flag-His-Avitag-TEVsite tag); made in house
Briefly: binding ELISA with Biotin-PDZ3. The following applies: plate coated with 2 µM test compound, Biotin-PDZ3 titrated; read-out: EC50 (PDZ3).
Excerpt: as §1, with “domain. The expression and purification of PSD95-PDZ3 protein were carried out with reference to the steps in 3.1.2. The amino acid sequence of PDZ3 protein: […]” for “domain.”, “μL” for “µL”

T2 sequence (P78352 309-401): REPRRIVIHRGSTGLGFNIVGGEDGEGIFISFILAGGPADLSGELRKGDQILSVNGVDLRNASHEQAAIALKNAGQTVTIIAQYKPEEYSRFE

As for `CC(C)[C@H](NC(=O)[C@H](CC(=O)O)NC(=O)[C@@H](NC(=O)[C@@H](NC(=O)[C@@H](NC(=O)COCCOCCNC(=O)[C@@H](CCCNC(=N)N)NC(=O)[C@@H](CCCNC(=N)N)NC(=O)[C@@H](CCCNC(=N)N)NC(=O)[C@@H](CCC(N)=O)NC(=O)[C@@H](CCCNC(=N)N)NC(=O)[C@@H](CCCNC(=N)N)NC(=O)[C@@H](CCCCN)NC(=O)[C@@H](CCCCN)NC(=O)[C@@H](CCCNC(=N)N)NC(=O)CNC(=O)[C@H](N)Cc1ccc(O)cc1)C(C)(C)C)C(C)(C)C)[C@@H](C)O)C(=O)O` [Polypeptide compound 15, y-G-r-k-k-r-r-q-r-r-r-AEEA-Tle-Tle-T-D-V], on human PSD95-PDZ2 [1], the IC50 was 2.62 µM and the rIC50 was 3.00. The “selectivity for the PSD95-PDZ2 domain” value on human PSD95-PDZ2 [2] (PDZ2 versus PDZ3, conclusion in words) was “comparable to that of the positive drugs NA-1 and NoNO42”. Besides, on human PSD95-PDZ2 [2], the EC50 came to 0.088 µM and the “Specificity for PDZ2 (PDZ3/PDZ2)” value is >10000. For the same compound, the EC50 at human PSD95-PDZ3 is > 1000 µM.

Take `CCCC[C@H](NC(=O)[C@@H](CCCNC(=N)N)NC(=O)[C@@H](CCCNC(=N)N)NC(=O)[C@@H](CCCNC(=N)N)NC(=O)[C@@H](CCC(N)=O)NC(=O)[C@@H](CCCNC(=N)N)NC(=O)[C@@H](CCCNC(=N)N)NC(=O)[C@@H](CCCCN)NC(=O)[C@@H](CCCCN)NC(=O)[C@@H](CCCNC(=N)N)NC(=O)CNC(=O)[C@H](N)Cc1ccc(O)cc1)C(=O)N[C@H](C(=O)N[C@H](C(=O)N[C@H](C(=O)N[C@H](C(=O)N[C@H](C(=O)N[C@@H](CC(=O)O)C(=O)N[C@H](C(=O)O)C(C)C)[C@@H](C)O)C(C)(C)C)C(C)(C)C)[C@@H](C)O)[C@@H](C)O` [Polypeptide compound 16, y-G-r-k-k-r-r-q-r-r-r-Nle-T-T-Tle-Tle-T-D-V]: the IC50 on human PSD95-PDZ2 [1] worked out at 1.52 µM. Also, the EC50 is 0.081 µM at human PSD95-PDZ2 [2] and > 1000 µM at human PSD95-PDZ3.

`CC[C@H](C)[C@H](NC(=O)[C@H](CCCCNC(=N)N)NC(=O)[C@H](CCCCNC(=N)N)NC(=O)[C@@H](NC(=O)[C@@H](CCCNC(=N)N)NC(=O)[C@@H](CCCNC(=N)N)NC(=O)[C@@H](CCCNC(=N)N)NC(=O)[C@@H](CCC(N)=O)NC(=O)[C@@H](CCCNC(=N)N)NC(=O)[C@@H](CCCNC(=N)N)NC(=O)[C@@H](CCCCN)NC(=O)[C@@H](CCCCN)NC(=O)[C@@H](CCCNC(=N)N)NC(=O)CNC(=O)[C@H](N)Cc1ccc(O)cc1)[C@@H](C)O)C(=O)N[C@H](C(=O)N[C@@H](CC(=O)O)C(=O)N[C@H](C(=O)O)C(C)C)[C@@H](C)O` [Polypeptide compound 17, y-G-r-k-k-r-r-q-r-r-r-T-homoArg-homoArg-I-T-D-V] (H-[dY]G[dR][dK][dK][dR][dR][dQ][dR][dR][dR]T[hArg][hArg]ITDV-OH): the IC50 at human PSD95-PDZ2 [1] was found to be 0.605 µM. The EC50 was 0.269 µM at human PSD95-PDZ2 [2] and 38.3 µM on human PSD95-PDZ3.

With `CC(C)[C@H](NC(=O)[C@H](CC(=O)O)NC(=O)[C@@H](NC(=O)[C@@H](NC(=O)[C@@H](NC(=O)[C@H](CCCCNC(=N)N)NC(=O)[C@H](CCN)NC(=O)C(C)(C)NC(=O)CNC(=O)[C@@H](CCCNC(=N)N)NC(=O)[C@@H](CCCNC(=N)N)NC(=O)[C@@H](CCCNC(=N)N)NC(=O)[C@@H](CCC(N)=O)NC(=O)[C@@H](CCCNC(=N)N)NC(=O)[C@@H](CCCNC(=N)N)NC(=O)[C@@H](CCCCN)NC(=O)[C@@H](CCCCN)NC(=O)[C@@H](CCCNC(=N)N)NC(=O)CNC(=O)[C@H](N)Cc1ccc(O)cc1)C(C)(C)C)C(C)(C)C)[C@@H](C)O)C(=O)O` [Polypeptide compound 18, y-G-r-k-k-r-r-q-r-r-r-G-Aib-Dab-homoArg-Tle-Tle-T-D-V] (H-[dY]G[dR][dK][dK][dR][dR][dQ][dR][dR][dR]G[Aib][Dab][hArg][Tle][Tle]TDV-OH), at human PSD95-PDZ2 [1], the IC50 came out at 0.152 µM and the rIC50 is 0.17. For the same compound, at human PSD95-PDZ2 [2], the EC50 was 0.015 µM and the “Specificity for PDZ2 (PDZ3/PDZ2)” value turned out to be 79. Besides, the EC50 on human PSD95-PDZ3 was 1.19 µM.

Consider `CC(C)[C@H](NC(=O)[C@H](CC(=O)O)NC(=O)[C@@H](NC(=O)[C@@H](NC(=O)[C@@H](NC(=O)[C@@H](NC(=O)CNC(=O)[C@@H](CCCNC(=N)N)NC(=O)[C@@H](CCCNC(=N)N)NC(=O)[C@@H](CCCNC(=N)N)NC(=O)[C@@H](CCC(N)=O)NC(=O)[C@@H](CCCNC(=N)N)NC(=O)[C@@H](CCCNC(=N)N)NC(=O)[C@@H](CCCCN)NC(=O)[C@@H](CCCCN)NC(=O)[C@@H](CCCNC(=N)N)NC(=O)CNC(=O)[C@H](N)Cc1ccc(O)cc1)[C@@H](C)O)C(C)(C)C)C(C)(C)C)[C@@H](C)O)C(=O)O` [Polypeptide compound 20, y-G-r-k-k-r-r-q-r-r-r-G-T-Tle-Tle-T-D-V] (H-[dY]G[dR][dK][dK][dR][dR][dQ][dR][dR][dR]GT[Tle][Tle]TDV-OH), for which, at human PSD95-PDZ2 [1], the IC50 amounted to 0.763 µM and the rIC50 is 0.84. In addition, on human PSD95-PDZ2 [2], the EC50 came to 0.015 µM and the “Specificity for PDZ2 (PDZ3/PDZ2)” value is on record as 215. Also, the EC50 at human PSD95-PDZ3 was 3.23 µM.
